Measured values: patent US20060019958A1, “Immunity-related protein kinase inhibitors” (priority 2002, published 2006)

Assays:
[1] = tested on: NF-κB activation by forced expression of MEKK-1 in HeLa cells; assay: Inhibition of NF-κB activation by forced expression of MEKK-1 (luciferase reporter assay); type: cell-based, human; settings: MEKK-1 forced expression, 24 hours
Source text: Measurement of Inhibition of NF-κB Activation by Forced Expression of MEKK-1
Using a transfection reagent(Effectene; QIAGEN), human uterine cancer cell strain HeLa was cotransfected with a plasumid (pNF κB-Luc Reporter Plasmid: STRATAGENE) integrated with an oligonucleotide having five tandem copies of NF-κB binding sequences(TGGGGACTTTCCGC) on an upstream region of the firefly luciferase gene(Luc) and the MEKK-1 gene-contained expression vector(pFC-MEKK: STRATAGENE) according to the QIAGEN's protocol, and the cells were incubated for 24 hours. After incubation in the presence or absence of a test compound for 24 hours, intracellular luciferase activity was measured by using PicaGene LT(TOYO INK MFG Co., Ltd.) and a chemical luminescence measurement apparatus(SPECTRAFluor Plus; TECAN). The inhibitory ratio was measured as a ratio relative to the value of the luciferase activity in the absence of the test compound.

[2] = tested on: IκBα phosphorylation in HepG2 cells; assay: Detection of phosphorylated IκBα by Western blot method under TNFα stimulation; type: cell-based; settings: 40 ng/ml human TNFα, 20 μM MG-132
Protocol: Detection of Phosphorylated IκBα by Western Blot Method
[…] After 45 minutes, 40 ng/ml of human TNFα was further added. Ten minutes after the addition of the TNFα, the cells were collected, and a cell lysate was prepared by using a tip-type ultrasonic processor (Dr.Hielsher; UP-50H). After the measurement of a protein concentration using a BCA protein assay kit by Pierce (BSA standard), 30 μg of the cell lysate was applied to each lane of 12% SDS slab gel (mini gel) and an electrophoresis was carried out. After the electrophoresis, a detection of phorphorylated IκBα by Western blot method was carried out using anti-phosphorylated IκBα (Ser32) antibody (Cell Signaling) as a primary antibody and […] as a secondary antibody.

Compound	Inhibition Ratio of I κ B phosphorylation(%) ([2]; Drug Concentration 2 μg/ml)	further results
O=C(Nc1cc(C(F)(F)F)cc(C(F)(F)F)c1)c1cc(Cl)ccc1O [Compound No. 50, N-[3,5-Bis(trifluoromethyl)phenyl]-5-chloro-2-hydroxybenzamide]	43.0	Inhibitory Ratio of NF-κB Activation(%) ([1]; Drug Concentration 1 μg/ml): 92.6%; Inhibitory Ratio of NF-κB Activation(%) ([1]; Drug Concentration 10 μg/ml): 93.2%
CC(C)(C)c1ccc(O)c(C(=O)Nc2cc(C(F)(F)F)cc(C(F)(F)F)c2)c1 [Compound No. 56, N-[3,5-Bis(trifluoromethyl)phenyl]-5-[(1,1-dimethyl)ethyl]-2-hydroxybenzamide]	31.3	–
O=C(Nc1cc(C(F)(F)F)cc(C(F)(F)F)c1)c1cc(-c2ccccc2)ccc1O [Compound No. 67]	43.8	–
O=C(Nc1cc(C(F)(F)F)cc(C(F)(F)F)c1)c1cc(-n2cccc2)ccc1O [Compound No. 71]	29.5	–
CC(=O)Oc1ccccc1C(=O)Nc1cc(Cl)cc(Cl)c1 [compound 172, 2-acetoxy-N-(3,5-dichlorophenyl)benzamide]	–	melting point: 218 to 219 °C
CC(C)(C)C(=O)c1sc(NC(=O)c2cc(Cl)ccc2O)nc1C(C)(C)C [compound 195, 5-Chloro-N-{4-[(1,1-dimethyl)ethyl]-5-[(2,2-dimethyl)propionyl]thiazol-2-yl}-2-hydroxybenzamide]	63.5	–
CC(C)(C)c1nc(NC(=O)c2cc(Br)ccc2O)sc1N1CCOCC1 [compound 199, 5-Bromo-N-{4-[(1,1-dimethyl)ethyl]-5-morpholinothiazol-2-yl}-2-hydroxybenzamide]	47.9	–
CC(C)(C)c1nc(NC(=O)c2cc(Br)ccc2O)sc1N1CCN(c2ccccc2)CC1 [compound 201, 5-Bromo-N-{4-[(1,1-dimethyl)ethyl]-5-(4-phenylpiperazin-1-yl)thiazol-2-yl}-2-hydroxybenzamide]	57.4	–
COc1cc(/C=C/C(=O)CC(=O)/C=C/c2ccc(O)c(OC)c2)ccc1O [curcumin]	–	Inhibition Ratio of I κ B phosphorylation(%) ([2]; Drug Concentration 100 μM): 51.6%
